# Where a name gives a salt, the structure may show the parent alone.
# What was measured:
# [1] = biological target: T1, human recombinant ALK1 (GST fused to ALK1 intracellular domain [His142-Gln503]) (Homo sapiens, UniProt P37023); experiment: ALK1-Kinase Flashplate-Assay; assay type: biochemical; conditions: 0.5 μM ATP, biotinylated α-casein substrate; read-out: Assay 1 (ALK1-Kinase Flashplate-Assay IC50 class)
# T1 construct: GST fused to ALK1 intracellular domain [His142-Gln503]; made in house
# T1 sequence (P37023 142-503): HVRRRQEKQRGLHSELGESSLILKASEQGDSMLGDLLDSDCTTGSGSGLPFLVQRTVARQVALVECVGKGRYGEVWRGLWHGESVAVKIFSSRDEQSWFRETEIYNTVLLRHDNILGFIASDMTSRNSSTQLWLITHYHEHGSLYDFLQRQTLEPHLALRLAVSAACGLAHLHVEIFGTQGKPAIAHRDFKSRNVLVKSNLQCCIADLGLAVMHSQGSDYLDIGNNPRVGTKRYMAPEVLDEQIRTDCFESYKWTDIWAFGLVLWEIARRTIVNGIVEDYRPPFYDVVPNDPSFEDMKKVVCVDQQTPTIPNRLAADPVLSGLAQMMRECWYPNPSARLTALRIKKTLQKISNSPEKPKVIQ
# Summary of the method: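 Radiometric Flashplate assay at 20 °C: GST-ALK1 intracellular domain (5 ng/well) with 1 μM biotinylated bovine α-casein, 0.5 μM ATP plus [γ-33P]ATP in Tris pH 8.0, 1 mM MnCl2, 1% or 5% DMSO, 60 min. Normalised to no-inhibitor (0%) and 10 mM EDTA (100%); IC50 by 4-parameter fit.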
# [2] = biological target: T2, ALK1 (wildtype full-length ALK1 receptor) (Homo sapiens, UniProt P37023); experiment: ALK1 transactivation assay (ID1-promoter luciferase reporter in transfected HepG2 cells); assay type: cell-based; conditions: ID1-luc reporter, 18 h, read-out: Assay 2 (ALK1 transactivation assay IC50 class)
# T2 construct: expression vector for wildtype full-length ALK1 receptor; expressed in transfected cells; host or cells: HepG2 (ATCC HB-8065), transient transfection with ALK1wt in pcDNA3.1
# Excerpt: Biological Assay 2: ALK1 Transactivation Assay
# Herein HepG2 cell-cultures were transiently transfected by known techniques with an ALK1 plasmid (expression vector for wildtype full-length ALK1 receptor) and ID1 reporter plasmid containing 1.3 kB (−1370 to +86) of the ID1-promoter upstream of a luciferase reporter gene. ID1 is a known target gene of ALK1 and therefore gets transactivated by cotransfection with the ALK1 receptor. The specific transactivation is quantified via relative light units (RLU) which are detected in dependence of luciferase expression. Therefore a commercially available detection kit which contains the luciferase substrate luciferine was used.
# HepG2 cells, ATCC HB-8065
# 96well plate polypropylene for compound dilution in DMSO
# DMEM Ham's F12 (Biochrom #F4815) with 10% FCS after dialysis, 1% PenStrep and 200 mM Glutamine
# steadyliteHTS (Perkin Elmer# 6016981)
# Day 1: Seeding of Cells on 96-Well Plates
# HepG2 cells are seeded on 96-well plates at a density of 7000 cells/ well in DMEM/HamsF12+5% FCS (+1% P/S, +1% Gln).
# Day 2: Transfection of Cells
# 200 ng DNA: 100 ng ID1-luc (in pGL3basic, Promega)+5 ng ALK1wt (in pcDNA3.1)+95 ng pcDNA3.1 (empty vector, Invitogen)
# Fugene and OptiMEM are incubated for 5 min at RT. This mixture is incubated with the DNA for 15 min at RT.
# Afterwards, the plate is incubated under shaking conditions at room temperature (RT) for 1 h. After 4 hours at 37° C. the supernatants are drawn off by suction and the wells are replaced with medium (100 μl/well) containing low serum (0.2% FCS) and test substances.
# Plates are incubated for further 18 h at 37° C.
# 100 μl luciferase substrate (steadyliteHTS, Packard) are added per well and plates are measured after 10 minutes in a luminometer (e.g. Viktor luminometer, Perkin Elmer). Luciferase activity is quantified by relative light units (RLU).
# Calculation of IC50: ALK1wt−DMSO Control (without ALK1)=100% Substance(+ALK1wt)−DMSO control (without ALK1)=x % IC50=50% inhibition of ALK1 transactivation activity Biological data are presented below: Biological assay 1: ALK1-Kinase Flashplate-Assay
# T2 sequence (P37023 22-503): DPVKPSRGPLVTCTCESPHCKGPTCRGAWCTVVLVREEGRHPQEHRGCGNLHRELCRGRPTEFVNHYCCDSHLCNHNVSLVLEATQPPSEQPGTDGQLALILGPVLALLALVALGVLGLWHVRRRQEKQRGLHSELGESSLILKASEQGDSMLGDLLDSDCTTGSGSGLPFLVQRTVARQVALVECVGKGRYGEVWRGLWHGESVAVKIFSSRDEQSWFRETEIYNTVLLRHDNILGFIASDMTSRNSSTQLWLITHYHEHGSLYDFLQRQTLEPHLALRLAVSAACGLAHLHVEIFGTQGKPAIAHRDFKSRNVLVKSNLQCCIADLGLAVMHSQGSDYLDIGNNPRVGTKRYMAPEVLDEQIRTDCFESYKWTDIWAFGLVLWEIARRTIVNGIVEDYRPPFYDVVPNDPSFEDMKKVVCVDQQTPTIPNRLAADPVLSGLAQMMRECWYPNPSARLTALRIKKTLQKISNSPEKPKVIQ
Structure (SMILES),IC50 [1] [nM],IC50 [2] [nM]
"COc1cc(-c2cnn3ccc(Nc4ccc(N5CCOCC5)cc4)nc23)cc(OC)c1OC [Example 421, (4-Morpholin-4-yl-phenyl)-[3-(3,4,5-trimethoxy-phenyl)-pyrazolo[1,5-a]pyrimidin-5-yl]-amine]",< 1000,< 10000
"Cc1ccc(Nc2ccn3ncc(-c4cccc(O)c4)c3n2)cc1NS(C)(=O)=O [Example 427, N-{5-[3-(3-Hydroxy-phenyl)-pyrazolo[1,5-a]pyrimidin-5-ylamino]-2-methyl-phenyl}-methanesulfonamide]",< 1000,< 10000
"COc1cc(OC)cc(-c2cnn3ccc(NC4CCN(C)CC4)nc23)c1 [Example 10, [3-(3,5-Dimethoxy-phenyl)-pyrazolo[1,5-a]pyrimidin-5-yl]-(1-methyl-piperidin-4-yl)-amine]",< 1000,< 10000
"COc1ccc(-c2cnn3ccc(Nc4ccc(N5CCOCC5)cc4)nc23)cc1OC [Example 27, [3-(3,4-Dimethoxy-phenyl)-pyrazolo[1,5-a]pyrimidin-5-yl]-(4-morpholin-4-yl-phenyl)-amine]",< 1000,< 10000
"CN1CCC(Nc2ccn3ncc(-c4cccc(C(F)(F)F)c4)c3n2)CC1 [Example 490, (1-methyl-piperidin-4-yl)-[3-(3-trifluoromethyl-phenyl)-pyrazolo[1,5-a]pyrimidin-5-yl]-amine]",< 1000,< 10000
"FC(F)(F)c1cccc(-c2cnn3ccc(Nc4ccc(N5CCOCC5)nc4)nc23)c1 [Example 26, (6-Morpholin-4-yl-pyridin-3-yl)-[3-(3-trifluoromethyl-phenyl)-pyrazolo[1,5-a]pyrimidin-5-yl]-amine]",< 1000,< 10000
"COc1ccc(Nc2ccn3ncc(-c4ccc(OC)c(OC)c4)c3n2)cn1 [Example 465, [3-(3,4-Dimethoxy-phenyl)-pyrazolo[1,5-a]pyrimidin-5-yl]-(6-methoxy-pyridin-3-yl)-amine]",< 1000,< 10000
"COc1cc(-c2cnn3ccc(Nc4ccccc4)nc23)cc(OC)c1OC [Example 2, phenyl-[3-(3,4,5-trimethoxy-phenyl)-pyrazolo[1,5-a]pyrimidin-5-yl]-amine]",< 1000,< 10000
"CC(C)c1ccc(Nc2ccn3ncc(-c4cccc(C(N)=O)c4)c3n2)cc1 [Example 449, 3-[5-(4-Isopropyl-phenylamino)-pyrazolo[1,5-a]pyrimidin-3-yl]-benzamide]",< 1000,< 10000
"COc1cc(OC)cc(-c2cnn3ccc(Nc4ccc(N5CCOCC5)cc4)nc23)c1 [Example 127, [3-(3,5-Dimethoxy-phenyl)-pyrazolo[1,5-a]pyrimidin-5-yl]-(4-morpholin-4-yl-phenyl)-amine]",< 1000,< 10000
"COc1cc(OC)cc(-c2cnn3ccc(Nc4ccc(N5CCOCC5)nc4)nc23)c1 [Example 30, [3-(3,5-Dimethoxy-phenyl)-pyrazolo[1,5-a]pyrimidin-5-yl]-(6-morpholin-4-yl-pyridin-3-yl)-amine]",< 1000,< 10000
"COc1cncc(-c2cnn3ccc(Nc4ccc(N5CCOCC5)cc4)nc23)c1 [Example 422, [3-(5-Methoxy-pyridin-3-yl)-pyrazolo[1,5-a]pyrimidin-5-yl]-(4-morpholin-4-yl-phenyl)-amine]",< 1000,< 10000
"CS(=O)(=O)c1cccc(-c2cnn3ccc(Nc4ccc(N5CCOCC5)cc4)nc23)c1 [Example 131, [3-(3-Methanesulfonyl-phenyl)-pyrazolo[1,5-a]pyrimidin-5-yl]-(4-morpholin-4-yl-phenyl)-amine]",< 1000,< 10000
"COc1ccc(-c2cnn3ccc(Nc4ccc(N5CCOCC5)cc4)nc23)cn1 [Example 20, [3-(6-Methoxy-pyridin-3-yl)-pyrazolo[1,5-a]pyrimidin-5-yl]-(4-morpholin-4-yl-phenyl)-amine]",< 1000,< 10000
"COc1cc(-c2cnn3ccc(Nc4ccc(F)cc4)nc23)cc(OC)c1OC [Example 3, (4-fluoro-phenyl)-[3-(3,4,5-trimethoxy-phenyl)-pyrazolo[1,5-a]pyrimidin-5-yl]-amine]",< 1000,< 10000
"c1csc(-c2cnn3ccc(NC4CCNCC4)nc23)c1 [Example 495, Piperidin-4-yl-(3-thiophen-2-yl-pyrazolo[1,5-a]pyrimidin-5-yl)-amine bis TFA salt]",< 1000,< 10000
"Oc1ccc(-c2cnn3ccc(Nc4ccccc4)nc23)cc1 [Example 282, 4-(5-Phenylamino-pyrazolo[1,5-a]pyrimidin-3-yl)-phenol]",1000 to 10000,–
"COc1cc(-c2cnn3ccc(Nc4ccc(C(C)C)cc4)nc23)cc(OC)c1OC [Example 97, (4-Isopropyl-phenyl)-[3-(3,4,5-trimethoxy-phenyl)-pyrazolo[1,5-a]pyrimidin-5-yl]-amine]",< 1000,–
"c1csc(-c2cnn3ccc(NC4CCCCC4)nc23)c1 [Example 494, Cyclohexyl-(3-thiophen-2-yl-pyrazolo[1,5-a]pyrimidin-5-yl)-amine]",1000 to 10000,–
"Oc1ccc(-c2cnn3ccc(Nc4ccc5[nH]ccc5c4)nc23)cc1 [Example 18, 4-[5-(1H-Indol-5-ylamino)-pyrazolo[1,5-a]pyrimidin-3-yl]-phenol]",1000 to 10000,–
"CC(C)c1ccc(Nc2ccn3ncc(-c4cccc(CO)c4)c3n2)cc1 [Example 275, {3-[5-(4-Isopropyl-phenylamino)-pyrazolo[1,5-a]pyrimidin-3-yl]-phenyl}-methanol]",1000 to 10000,–
"Cn1cc(-c2cnn3ccc(Nc4ccccc4)nc23)cn1 [Example 244, [3-(1-Methyl-1H-pyrazol-4-yl)-pyrazolo[1,5-a]pyrimidin-5-yl]-phenyl-amine]",< 1000,–
"CC(=O)Nc1ccc(Nc2ccn3ncc(-c4cccc(N(C)C)c4)c3n2)cc1 [Example 331, N-{4-[3-(3-Dimethylamino-phenyl)-pyrazolo[1,5-a]pyrimidin-5-ylamino]-phenyl}-acetamide]",1000 to 10000,–
"O=C(NCCO)c1cccc(-c2cnn3ccc(Nc4ccc(N5CCOCC5)cc4)nc23)c1 [Example 130, N-(2-Hydroxy-ethyl)-3-[5-(4-morpholin-4-yl-phenylamino)-pyrazolo[1,5-a]pyrimidin-3-yl]-benzamide]",1000 to 10000,–
"COc1cccc(-c2cnn3ccc(Nc4ccc(N5CCOCC5)cc4)nc23)c1 [Example 233, [3-(3-Methoxy-phenyl)-pyrazolo[1,5-a]pyrimidin-5-yl]-(4-morpholin-4-yl-phenyl)-amine]",1000 to 10000,–
"FC(F)(F)Oc1cccc(-c2cnn3ccc(Nc4ccc(N5CCOCC5)cc4)nc23)c1 [Example 129, (4-Morpholin-4-yl-phenyl)-[3-(3-trifluoromethoxy-phenyl)-pyrazolo[1,5-a]pyrimidin-5-yl]-amine]",1000 to 10000,–
"c1cc(-c2cnn3ccc(Nc4ccc(N5CCOCC5)cc4)nc23)cs1 [Example 467, (4-Morpholin-4-yl-phenyl)-(3-thiophen-3-yl-pyrazolo[1,5-a]pyrimidin-5-yl)-amine]",1000 to 10000,–
"CC(C)c1ccc(Nc2ccn3ncc(-c4ccncc4)c3n2)cc1 [Example 36, (4-Isopropyl-phenyl)-(3-pyridin-4-yl-pyrazolo[1,5-a]pyrimidin-5-yl)-amine]",1000 to 10000,–
"COc1cc(Nc2ccn3ncc(-c4cc(OC)c(OC)c(OC)c4)c3n2)cc(OC)c1OC [Example 77, (3,4,5-Trimethoxy-phenyl)-[3-(3,4,5-trimethoxy-phenyl)-pyrazolo[1,5-a]pyrimidin-5-yl]-amine]",< 1000,–

# — patent US20080039455A1, “PYRAZOLOPYRIMIDINES AND SALTS THEREOF, PHARMACEUTICAL COMPOSITIONS COMPRISING SAME, METHODS OF PREPARING SAME AND USES OF SAME” (priority 2006, published 2008)
